PubChem BioAssay (NCI)
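Method: 48-hour compound exposure of cells in 96-well plates, five concentrations, linear interpolation of endpoints. The concentration for 50% growth inhibition is given as GI50. TGI marks complete inhibition of growth.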

Columns and labels:
Test in all cases: NCI anticancer screen, dose series, 48 h
786-0 renal = test system: 786-0 renal
BT-549 breast = test system: BT-549 breast
CCRF-CEM leukemia = test system: CCRF-CEM leukemia
EKVX NSCLC = test system: EKVX NSCLC
HS 578T breast = test system: HS 578T breast
MALME-3M melanoma = test system: MALME-3M melanoma
MCF7 breast = test system: MCF7 breast
MDA-N = test system: MDA-N
NCI/ADR-RES ovarian = test system: NCI/ADR-RES ovarian
PC-3 prostate = test system: PC-3 prostate
RXF 393 renal = test system: RXF 393 renal
SK-OV-3 ovarian = test system: SK-OV-3 ovarian
T-47D breast = test system: T-47D breast

Row | SMILES | TGI (786-0 renal) | TGI (BT-549 breast) | TGI (CCRF-CEM leukemia) | TGI (EKVX NSCLC) | TGI (HS 578T breast) | TGI (MALME-3M melanoma) | TGI (MCF7 breast) | TGI (MDA-N) | TGI (NCI/ADR-RES ovarian) | TGI (PC-3 prostate) | TGI (RXF 393 renal) | TGI (SK-OV-3 ovarian) | TGI (T-47D breast) | GI50 (CCRF-CEM leukemia) | GI50 (MCF7 breast) | GI50 (T-47D breast) | GI50 (EKVX NSCLC) | GI50 (PC-3 prostate) | GI50 (RXF 393 renal) | GI50 (SK-OV-3 ovarian)
1 | CCc1c2cc(OC)c(OC)cc2cc2c3cc(OC)c(OC)cc3cc[n+]12 (tested in a mixture with another compound) | > 73 µM | 17.4 µM | > 100 µM | > 88 µM | > 89.1 µM | 44.2 µM | > 91.6 µM | > 36.5 µM | > 61.1 µM | > 83.1 µM | > 100 µM | > 97.2 µM | > 67 µM |  |  |  |  |  |  | 
2 | COc1ccc(NC(=S)NNC(=O)c2nsc3ccccc23)cc1 |  |  |  | > 100 µM |  |  |  |  |  |  | 72.9 µM |  |  |  |  |  |  |  |  | 
3 | OC(c1ccc(Cl)cc1)(c1ccc(Cl)cc1)c1cncnc1 |  | 42 µM | 54.1 µM |  | 66.6 µM | > 100 µM | 47.8 µM | 37.7 µM | 74.8 µM | 31.7 µM | 28.4 µM |  | > 100 µM |  |  |  |  |  |  | 
4 | Cc1cn(C2C=CC(COP(=O)(OCc3ccc([N+](=O)[O-])o3)N(C)CCCCCl)O2)c(=O)[nH]c1=O (stereo not drawn) | 23.1 µM |  | 25.4 µM |  | 9.89 µM | 7.36 µM | 19.6 µM | 11.8 µM | > 100 µM | 27.8 µM | 11.3 µM | 24 µM | 7.05 µM |  |  |  |  |  |  | 
5 | CCCCN(CCCC)CCC(O)c1cc(-c2ccc(C(F)(F)F)cc2)nc(-c2ccc(C(F)(F)F)cc2)c1 (stereo not drawn) | > 100 µM |  | > 100 µM | > 100 µM |  | > 100 µM | > 100 µM | > 100 µM | > 100 µM | > 100 µM |  |  | > 100 µM |  |  |  |  |  |  | 
6 | O=C1CCCC/C1=C1/SC(=Nc2ccccc2)C(=Nc2ccccc2)N1c1ccccc1 |  | > 100 µM | > 100 µM |  | > 100 µM | > 100 µM | > 100 µM | > 100 µM | > 100 µM |  | 40 µM | > 100 µM | > 100 µM |  |  |  |  |  |  | 
7 | COC1CC(OC2CCC3(C)C(=CCC4C3C(OC(C)=O)C(OC(=O)CC(C)C)C3(C)C(C(C)=O)CCC43O)C2)OC(C)C1OC1CC(OC)C(OC2CC(OC)C(OC3OC(C)C(O)C(OC)C3O)C(C)O2)C(C)O1 (stereo not drawn) | 59.9 µM | 69.6 µM | 72.6 µM | > 100 µM | > 100 µM | > 100 µM | 93.6 µM | > 100 µM |  | > 100 µM | 47.2 µM | > 100 µM | > 100 µM |  |  |  |  |  |  | 
8 | Clc1cc2ccccc2c2ccccc12 | > 100 µM | 96.7 µM | > 100 µM | > 100 µM | > 100 µM | > 100 µM | > 100 µM |  | > 100 µM | > 100 µM | > 100 µM |  | > 100 µM |  |  |  |  |  |  | 
9 | O=NN1C(c2ccccc2)C2CCCC(C2=O)C1c1ccccc1 (stereo not drawn) |  |  | > 83.6 µM | > 79.5 µM |  | 19.8 µM | 46.4 µM |  | > 89.6 µM |  | 41.8 µM | 73.6 µM |  |  |  |  |  |  |  | 
10 | NC1C=NNC1=O (stereo not drawn) |  |  | > 100 µM | > 100 µM |  | > 100 µM |  |  |  |  | > 100 µM | > 100 µM |  |  |  |  |  |  |  | 
11 | O=C(Nn1c(-c2cccs2)nc2ccc(I)cc2c1=O)c1ccccc1 | > 100 µM | 51.9 µM | > 100 µM | 70.5 µM |  |  | > 100 µM | > 100 µM | > 100 µM | > 100 µM | > 100 µM |  | 37.6 µM | 38.5 µM | 23.2 µM | 11.1 µM |  |  |  | 
12 | Clc1ccc(C2CC(c3cccc(Nc4ccncc4)c3)=NN2c2ccc(Cl)cc2)cc1 (stereo not drawn) |  |  |  | 3.04 µM |  |  |  |  |  | 3.08 µM | 2.94 µM | 3.41 µM |  |  |  |  | 1.58 µM | 1.55 µM | 1.54 µM | 1.77 µM
13 | O=C(O)C1OC1C(=O)O (stereo not drawn) | > 100 µM | > 100 µM |  | > 100 µM | > 100 µM | > 100 µM | > 100 µM | > 100 µM | > 100 µM |  | > 100 µM | > 100 µM | > 100 µM |  |  |  |  |  |  | 
14 | C[C@]12Cc3cnc(-c4ccccc4)nc3C[C@@H]1CC[C@@H]1[C@@H]2CC[C@@]2(C)[C@H]1CC[C@]2(C)O | 27.5 µM | 54.6 µM | 77.7 µM | > 87.1 µM | 65.2 µM | 43.5 µM | 76.5 µM | 48.9 µM | 57 µM | 36.3 µM | 12.3 µM | 50 µM | 39.7 µM |  |  |  |  |  |  | 
15 | CC(C)=Cc1cc(C)c2c3c(c(O)c(O)c(C)c13)C(C)=CC2=O | 64.8 µM |  |  |  | 74.4 µM |  | 68.7 µM | > 100 µM | 81.5 µM | > 100 µM |  | 89 µM | 49.3 µM |  |  |  |  |  |  | 
16 | CN(CCO)Cc1ncccc1O |  | > 100 µM | > 100 µM | > 100 µM | > 100 µM | > 100 µM | > 100 µM |  | > 100 µM | > 100 µM | > 100 µM | > 100 µM | > 100 µM |  |  |  |  |  |  | 
17 | O=S(=O)(O)c1cc(S(=O)(=O)O)c2cc(N=Nc3c(O)ccc4ccccc34)ccc2c1 | > 100 µM | > 100 µM | > 100 µM | > 100 µM | > 100 µM | > 100 µM |  | > 100 µM | > 100 µM | > 100 µM | > 100 µM | > 100 µM | > 100 µM |  |  |  |  |  |  | 
18 | CN1CC(c2ccccc2)C(O)(C2(c3ccccc3)CN(C)CC(c3ccccc3)C2=O)C(c2ccccc2)C1 (stereo not drawn) | > 100 µM | > 100 µM |  | > 100 µM | 94.2 µM |  | > 100 µM | > 100 µM | > 100 µM | > 100 µM |  |  | > 100 µM |  |  |  |  |  |  | 
19 | Nc1c(OCC(=O)O)ccc2cc(S(=O)(=O)O)ccc12 | > 100 µM | > 100 µM | > 100 µM |  | > 100 µM | > 100 µM | > 100 µM | > 100 µM | > 100 µM | > 100 µM | > 100 µM | > 100 µM | > 100 µM |  |  |  |  |  |  | 
20 | CCC1C(C#N)=C(O)NC(O)=C1C#N |  |  |  | > 100 µM |  | > 100 µM |  |  |  |  | > 100 µM | > 100 µM |  |  |  |  |  |  |  | 
21 | COc1ccc(C(=O)NC2=C(Cl)C(=O)c3ccccc3C2=O)cc1 |  | 9.64 µM | > 100 µM | 26.1 µM | 33.5 µM | 3.19 µM | 17.8 µM | 10.7 µM | 9.05 µM | 10.8 µM | 8.25 µM | 9.85 µM | 3.83 µM |  |  |  |  |  |  | 
22 | CC1C2CCC3C(O)C2(CC(O)C2(O)C1CC(O)C2(C)C)CC3(C)O (stereo not drawn) | > 100 µM | > 100 µM | > 100 µM | > 100 µM | > 100 µM | > 100 µM | > 100 µM | > 100 µM | > 100 µM | > 100 µM |  | > 100 µM | > 100 µM |  |  |  |  |  |  | 
23 | CCOC(=O)c1nc2ccccc2n(CC)c1=O |  | > 100 µM | > 100 µM | > 100 µM | > 100 µM | > 100 µM | > 100 µM | > 100 µM | > 100 µM | > 100 µM | > 100 µM | > 100 µM | > 100 µM |  |  |  |  |  |  | 
24 | CN(C)CCCNc1ccc2nnn3c4ccc(OC(=O)c5ccccc5)cc4c(=O)c1c23 | 17.5 µM | 32.7 µM | 7.98 µM | 20.2 µM | 36.6 µM | 29.2 µM | 30 µM | 30.1 µM | 37.9 µM | 23.8 µM | 12.8 µM | 42.9 µM | 37.5 µM |  |  |  |  |  |  | 
25 | c1cc(-c2ccc(-c3nc4ccc(C5=NCCN5)cc4s3)s2)ccc1C1=NCCN1 | 0.272 µM | 5.27 µM | 0.574 µM | 2.69 µM |  | 1.4 µM | 0.255 µM | 1 µM | > 100 µM | 2.27 µM |  |  | 1.42 µM |  |  |  |  |  |  | 
26 | CO/N=C(/C)c1cccc(Nc2nc3ccc(Cl)cc3c3[nH]c4ccccc4c23)c1 | 20.5 µM |  | > 100 µM |  | 45.8 µM |  | 26.2 µM | 24.3 µM | 33 µM | 32.6 µM | 6.92 µM | 49.6 µM | 7.28 µM |  |  |  |  |  |  | 
27 | O=C(O)CCO/N=C1/C(c2c(O)[nH]c3ccccc23)=Nc2ccccc21 | 94.8 µM | > 100 µM | 40.3 µM | 47.9 µM | > 100 µM | > 100 µM | > 100 µM | > 100 µM | > 100 µM | > 100 µM | 17.5 µM | 21.1 µM | 72.6 µM |  |  |  |  |  |  | 
